Values joined by “and” are separate entries in the source; they are usually repeats but may differ in a detail not shown here. Equal entries are not always repeated.
Experiments:
Type in all cases: cell-based
[1] = target: GluN1a wt/ GluN2B E236A (Rattus norvegicus, UniProt P35439+Q00960, E236A); experiment: TEVC recording in X. laevis oocytes, GluN2B mutant screening; settings: fitted curve
[2] = target: T1, GluN1-1b/GluN2B (Rattus norvegicus, UniProt P35439+Q00960); experiment: Single-channel patch clamp recordings (cell-attached) in CHO cells: open time, open channel probability; settings: 1 µM compound, exon 5 present
T1 construct: eGFP; DsRed2 (C); expressed in transfected cells; host or cells: CHO cells
Method: (§1) Chinese hamster ovary (CHO) cells were co-transfected with GluN1-1a eGFP and GluN2B pDsRed2-N1 or GluN1-1b eGFP and GluN2B pDsRed2-N1. The constructs were a generous gift from Prof. Hollmann (Bochum, Germany). GluN1-1b eGFP was obtained by subcloning of GluN1-1b in eGFP using BssHII and BtrI. Single-channel patch clamp recordings were performed at room temperature using an Axopatch 200B amplifier (Molecular Devices, USA). The patch clamp experiments on cultured CHO cells were done using Clampex 10.7 software (Molecular Devices, USA). Single-channel recordings were performed in the cell-attached configuration. Borosilicate glass pipettes with a resistance of 2–3 MΩ were backfilled with internal solution, consisting of 125 mM NaCl, 3 mM KCl, 1.25 mM NaH2PO4, 0.85 mM CaCl2, and 20 mM HEPES, 100 nM (S)-glutamate, and 20 µM glycine, adjusted to pH 7.4. During the recordings, the cells were continuously flushed with external solution, consisting of 141 mM potassium gluconate, 2.5 mM NaCl, 11 mM EGTA, and 10 mM HEPES, adjusted to pH 7.4 by KOH. The antagonist solution was prepared by adding 1 µM (R)-OF-NB1. All solutions were adjusted to a DMSO concentration of 0.1%. NMDA currents were measured by clamping GluN1-1a/GluN2B or GluN1-1b/GluN2B wild-type expressing CHO cells at − 70 mV. […] Data analysis was performed and evaluated using Clampfit 10.7 (Molecular Devices, USA).

[3] = target: T2, GluN1-1a/GluN2B (Rattus norvegicus, UniProt P35439+Q00960); experiment: as above; settings: 1 µM compound, without exon 5
T2 construct: eGFP; DsRed2 (C); expressed in transfected cells; host or cells: CHO cells (constructs a gift from Prof. Hollmann, Bochum)
Method: as §1

[4] = target: GluN1b wt/ GluN2B wt (Rattus norvegicus, UniProt P35439+Q00960); experiment: TEVC recording of NMDAR currents in X. laevis oocytes, inhibition by compound
GluN1b wt/ GluN2B wt (Rattus norvegicus, UniProt P35439+Q00960), sequence (Q00960 27-1482, other chains not shown): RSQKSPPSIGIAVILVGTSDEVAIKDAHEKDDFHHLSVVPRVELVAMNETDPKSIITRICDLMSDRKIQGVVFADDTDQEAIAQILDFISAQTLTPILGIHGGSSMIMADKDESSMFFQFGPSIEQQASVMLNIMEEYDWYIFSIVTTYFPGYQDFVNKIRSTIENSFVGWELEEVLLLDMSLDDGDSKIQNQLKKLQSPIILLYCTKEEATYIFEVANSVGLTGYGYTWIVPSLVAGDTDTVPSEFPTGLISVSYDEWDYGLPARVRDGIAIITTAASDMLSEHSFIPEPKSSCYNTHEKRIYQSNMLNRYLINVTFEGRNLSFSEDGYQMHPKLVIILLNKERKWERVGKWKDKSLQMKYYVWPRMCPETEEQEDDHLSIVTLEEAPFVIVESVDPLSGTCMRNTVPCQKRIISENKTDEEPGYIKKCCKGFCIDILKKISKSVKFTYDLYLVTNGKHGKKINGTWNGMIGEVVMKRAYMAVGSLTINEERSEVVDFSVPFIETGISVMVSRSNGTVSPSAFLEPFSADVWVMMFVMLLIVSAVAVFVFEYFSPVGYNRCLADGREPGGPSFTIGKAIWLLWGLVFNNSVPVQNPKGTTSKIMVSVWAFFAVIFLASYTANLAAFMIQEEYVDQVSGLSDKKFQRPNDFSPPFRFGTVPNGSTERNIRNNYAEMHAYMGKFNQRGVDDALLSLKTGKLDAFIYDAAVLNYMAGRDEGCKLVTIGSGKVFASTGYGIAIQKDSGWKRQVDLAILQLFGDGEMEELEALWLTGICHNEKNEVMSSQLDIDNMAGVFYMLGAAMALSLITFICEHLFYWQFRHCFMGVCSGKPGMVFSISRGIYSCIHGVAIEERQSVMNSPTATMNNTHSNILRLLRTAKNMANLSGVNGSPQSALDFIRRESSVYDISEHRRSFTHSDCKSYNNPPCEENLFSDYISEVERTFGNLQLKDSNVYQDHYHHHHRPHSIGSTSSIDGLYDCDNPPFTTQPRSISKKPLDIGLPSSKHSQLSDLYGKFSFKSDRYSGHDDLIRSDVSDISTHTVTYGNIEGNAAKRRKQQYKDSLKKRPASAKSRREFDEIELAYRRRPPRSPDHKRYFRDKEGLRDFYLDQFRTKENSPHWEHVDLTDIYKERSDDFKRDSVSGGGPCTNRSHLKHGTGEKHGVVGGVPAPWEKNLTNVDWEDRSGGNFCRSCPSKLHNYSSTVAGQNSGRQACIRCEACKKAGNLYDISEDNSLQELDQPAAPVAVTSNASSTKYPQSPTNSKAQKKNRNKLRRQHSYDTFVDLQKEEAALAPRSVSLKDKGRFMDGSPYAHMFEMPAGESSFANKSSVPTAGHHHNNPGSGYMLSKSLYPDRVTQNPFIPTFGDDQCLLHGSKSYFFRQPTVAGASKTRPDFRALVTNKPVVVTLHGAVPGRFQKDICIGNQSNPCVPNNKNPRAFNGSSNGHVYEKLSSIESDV
Method: (§2) The NMDAR was expressed in stage V and VI oocytes originated from X. laevis. Oocytes were provided by Ecocyte Bioscience (Dortmund, Germany), and equimolar amounts of wild-type and mutated GluN1 and GluN2B cRNA were injected (0.8 ng each). The oocytes were incubated in Barth’s solution, containing (mmol l^−1): 88 NaCl, 1 KCl, 0.4 CaCl2, 0.33 Ca(NO3)2, 0.6 MgSO4, 5 TRIS–HCl, 2.4 NaHCO3, supplemented with 80 mg l^−1 theophylline, 63 mg l^−1 benzylpenicillin, 40 mg l^−1 streptomycin, and 100 mg l^−1 gentamycin and maintained at 18 °C until usage. After injection, the oocytes were incubated for 5 days at 18 °C. Subsequently, the activity of the expressed NMDARs in the oocytes was recorded by two-electrode voltage clamp (TEVC).
(§3) The compounds were retrieved as 10 mM stock solutions in DMSO and were subsequently diluted with agonist solution and adjusted to 0.1% DMSO concentration. Inhibition of each compound was measured via TEVC in X. laevis oocytes at room temperature using a Turbo Tec 10CX amplifier (NPI electronic, Tamm, Germany), NI USB 6221 DA/AD Interface (National Instruments, Austin, USA), and GePulse Software (Dr. Michael Pusch, Genova, Italy). Ba^2+-Ringer, consisting of 10 mM HEPES, 90 mM NaCl, 1 mM KCl, and 1.5 mM BaCl2, adjusted to pH 7.4, was used for TEVC measurements. Agonist solution containing 10 µM glycine and 10 µM (S)-glutamate was prepared in Ba^2+-Ringer, and the measurements were performed at a holding potential of − 70 mV, using electrodes with a glass capillary filled with 3 M KCl and a resistance between 0.5 and 1.5 MΩ. The compounds were tested by applying ascending concentrations, ranging from 1 to 30,000 nM, in at least six oocytes. Example traces for all recorded conditions can be found in Supplementary Figs. S2–S9.
(§4) TEVC data were analyzed using Ana (Dr. Michael Pusch, Genova, Italy), and statistics were performed using OriginPro 2020 (OriginLab Corporation, Northampton, USA). The inhibitory effect of each compound is calculated using the following equation: inhibition=1-Ic-Ih/Ia-Ih where Ih describes the current in the absence of agonists; Ia represents the steady-state current in the presence of the agonists; and Ic is defined as the steady-state after binding of agonist and compound. All dose response curves are fitted to the following logistic equation: y=A1-A2/1+x/x0^p+A2 where A1 describes the minimal inhibition of a compound and was set to 0; A2 represents the maximal inhibition of a compound; p is the slope of the curve; x0 is defined as the concentration at half-maximal inhibition; and x is the tested concentration. Data were statistically analyzed by one-way ANOVA and Tukey post-hoc mean comparison test in OriginPro 2020 (OriginLab Corporation, Northampton, USA). p values are indicated by * for p < 0.05, ** for p < 0.01, and *** for p < 0.001.

[5] = test system: GluN1b wt/ GluN2B wt; experiment: as above; settings: X. laevis oocytes; higher for GluN1-1b
Method: as §2, §3, §4

[6] = target: GluN1a wt/ GluN2B wt (Rattus norvegicus, UniProt P35439+Q00960); experiment: as above
GluN1a wt/ GluN2B wt, sequence (Q00960 27-1482, other chains not shown): as above
Method: as §2, §3, §4

[7] = target: GluN1a wt/ GluN2B F114A (Rattus norvegicus, UniProt P35439+Q00960, F114A); experiment: TEVC recording in X. laevis oocytes, GluN2B mutant screening; settings: fitted curve
GluN1a wt/ GluN2B F114A, sequence (Q00960 27-1482 F114A, other chains not shown): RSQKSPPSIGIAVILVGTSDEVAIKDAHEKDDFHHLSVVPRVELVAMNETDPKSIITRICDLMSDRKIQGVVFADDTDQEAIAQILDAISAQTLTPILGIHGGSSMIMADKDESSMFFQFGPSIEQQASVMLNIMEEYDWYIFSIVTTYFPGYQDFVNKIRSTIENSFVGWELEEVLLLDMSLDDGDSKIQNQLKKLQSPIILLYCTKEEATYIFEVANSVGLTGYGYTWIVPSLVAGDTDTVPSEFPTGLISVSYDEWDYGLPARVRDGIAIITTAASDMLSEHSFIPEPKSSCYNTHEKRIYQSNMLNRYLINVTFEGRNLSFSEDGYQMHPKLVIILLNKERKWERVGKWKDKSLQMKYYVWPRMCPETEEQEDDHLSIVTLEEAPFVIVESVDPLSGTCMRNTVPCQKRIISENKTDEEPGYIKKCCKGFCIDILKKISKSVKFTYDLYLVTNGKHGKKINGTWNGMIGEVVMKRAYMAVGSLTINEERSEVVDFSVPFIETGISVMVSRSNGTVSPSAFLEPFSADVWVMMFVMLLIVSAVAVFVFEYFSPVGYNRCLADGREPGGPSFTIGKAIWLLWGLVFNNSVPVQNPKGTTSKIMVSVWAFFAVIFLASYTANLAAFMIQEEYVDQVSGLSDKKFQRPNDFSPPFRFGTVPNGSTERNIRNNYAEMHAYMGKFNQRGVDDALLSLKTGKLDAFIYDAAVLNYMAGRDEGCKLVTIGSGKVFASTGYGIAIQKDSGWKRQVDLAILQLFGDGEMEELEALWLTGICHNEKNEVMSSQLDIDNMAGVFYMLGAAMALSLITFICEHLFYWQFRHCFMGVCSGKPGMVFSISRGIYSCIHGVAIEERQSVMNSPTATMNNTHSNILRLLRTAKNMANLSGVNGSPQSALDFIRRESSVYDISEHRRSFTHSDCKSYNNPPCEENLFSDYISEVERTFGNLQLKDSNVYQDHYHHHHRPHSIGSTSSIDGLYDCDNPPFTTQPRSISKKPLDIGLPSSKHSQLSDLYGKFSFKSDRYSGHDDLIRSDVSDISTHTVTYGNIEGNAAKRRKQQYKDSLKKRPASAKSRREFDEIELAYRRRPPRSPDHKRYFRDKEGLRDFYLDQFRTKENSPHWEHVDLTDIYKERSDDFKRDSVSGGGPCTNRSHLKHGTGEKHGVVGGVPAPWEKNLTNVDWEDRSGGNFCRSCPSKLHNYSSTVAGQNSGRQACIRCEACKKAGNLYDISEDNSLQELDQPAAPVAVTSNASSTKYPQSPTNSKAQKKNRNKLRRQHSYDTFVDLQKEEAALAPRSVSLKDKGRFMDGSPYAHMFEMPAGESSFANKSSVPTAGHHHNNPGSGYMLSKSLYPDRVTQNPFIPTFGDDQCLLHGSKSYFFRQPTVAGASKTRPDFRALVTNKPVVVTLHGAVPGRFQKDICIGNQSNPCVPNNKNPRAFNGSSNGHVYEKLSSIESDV

[8] = agonists 10 µM glycine + 10 µM (S)-glutamate
[9] = oocytes, 10 µM glycine + 10 µM (S)-glutamate, -70 mV, fitted curve

Oc1ccc2c(c1)CCN(CCCCc1ccccc1F)C[C@@H]2O [(R)-OF-NB1]
IC50 [1, 8]: 232 nM
Hill coefficient [1]: 1.1
effect on open time of NMDAR [2]: did not result in a significant reduction
effect on open time of NMDAR [3]: did not result in a significant reduction
inhibition (%) ([4]; GluN1-1b, compound 10 nM, single oocyte, 0.01 µM): -3.681% and 0.325% and 2.192% and 0.884% and -0.428% and 3.985% and 0.078% and 0.089%
inhibition at 1 µM ([4]; GluN1-1b, compound 1000 nM, single oocyte): 72.1%
inhibition at 10 µM ([4]; GluN1-1b, compound 10000 nM, single oocyte): 82.7%
inhibition at 30 µM ([4]; GluN1-1b, compound 30000 nM, single oocyte): 84.9%
inhibition (%) ([4]; GluN1-1b/ GluN2B, compound concentration 0.001 μM, single oocytes, 0.001 µM): 0.0934% and -0.03337% and 1.1426% and -0.02965% and -0.02382% and 0.3791% and 0.2758%
inhibition (%) ([4]; GluN1-1b/ GluN2B, compound concentration 0.01 μM, single oocytes, 0.01 µM): -0.2599% and -0.1168% and -0.1502% and 0.03902% and 1.645% and -0.1483% and 0.439% and 0.2911%
inhibition at 30 µM ([4]; GluN1-1b/ GluN2B, compound concentration 30 μM, single oocytes): 86.1%
antagonist concentration at which oocytes were inhibited ([4]; TEVC example traces): ~ 1 µM
A2 (level of maximal inhibition) ([4]; fitted curve): 84.8%
Hill coefficient ([4]; fitted curve): 6.2
IC50 [4, 9]: 675 nM
IC50 of splice variant containing exon 5 (GluN1-1b) relative to IC50 of GluN1-1a [5]: sevenfold
inhibition at 10 µM ([6]; GluN1-1a/ GluN2B, compound concentration 10 μM, single oocytes): 88.1%
inhibition at 30 µM ([6]; GluN1-1a/ GluN2B, compound concentration 30 μM, single oocytes): 91.8%
antagonist concentration at which oocytes were already inhibited ([6]; TEVC example traces): 0.001 µM
Hill coefficient ([6]; fitted curve): 0.9
IC50 [6, 9]: 97 nM
IC50 [7, 8]: 6580 nM
Hill coefficient [7]: 0.8

Source: PMC10657792, “Downstream Allosteric Modulation of NMDA Receptors by 3-Benzazepine Derivatives” (Molecular Neurobiology, 2023)
